What was measured:
barnyardgrass [1] = assay: Test C preemergence; type: in vivo, Echinochloa crusgalli; settings: 0 to 100 scale (0 no effect, 100 complete control)
Outline: (§1)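 Pre: seeds in loam/sand, directed soil spray. Post: 1–2 leaf plants, 2–10 cm. Cmpd in non-phytotoxic solvent + surfactant. Greenhouse 10 d; visual rating vs untreated, 0 = none, 100 = complete control.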

blackgrass [2] = assay: Test C preemergence; type: in vivo, Alopecurus myosuroides; settings: 0 to 100 scale (0 no effect, 100 complete control)
Outline: as §1

corn [3] = assay: Test C preemergence; type: in vivo, Zea mays; settings: 0 to 100 scale (0 no effect, 100 complete control)
Outline: as §1

green foxtail [4] = assay: Test C preemergence; type: in vivo, Setaria viridis; settings: 0 to 100 scale (0 no effect, 100 complete control)
Outline: as §1

kochia [5] = assay: Test C preemergence; type: in vivo, Bassia scoparia; settings: 0 to 100 scale (0 no effect, 100 complete control)
Outline: as §1

oat, wild [6] = assay: Test C preemergence; type: in vivo, Avena fatua; settings: 0 to 100 scale (0 no effect, 100 complete control)
Outline: as §1

pigweed, palmer [7] = assay: Test C preemergence; type: in vivo, Amaranthus palmeri; settings: 0 to 100 scale (0 no effect, 100 complete control)
Outline: as §1

ragweed [8] = assay: Test C preemergence; type: in vivo, Ambrosia artemisiifolia; settings: 0 to 100 scale (0 no effect, 100 complete control)
Outline: as §1

ryegrass, Italian [9] = assay: Test C preemergence; type: in vivo, Lolium multiflorum; settings: 0 to 100 scale (0 no effect, 100 complete control)
Outline: as §1

soybean [10] = assay: Test C preemergence; type: in vivo, Glycine max; settings: 0 to 100 scale (0 no effect, 100 complete control)
Outline: as §1

wheat [11] = assay: Test C preemergence; type: in vivo, Triticum aestivum; settings: 0 to 100 scale (0 no effect, 100 complete control)
Outline: as §1

barnyardgrass [12] = assay: Test C postemergence; type: in vivo, Echinochloa crusgalli; settings: 10 days
Outline: as §1

blackgrass [13] = assay: Test C postemergence; type: in vivo, Alopecurus myosuroides; settings: 10 days
Outline: as §1

corn [14] = assay: Test C postemergence; type: in vivo, Zea mays; settings: 10 days
Outline: as §1

green foxtail [15] = assay: Test C postemergence; type: in vivo, Setaria viridis; settings: 10 days
Outline: as §1

kochia [16] = assay: Test C postemergence; type: in vivo, Bassia scoparia; settings: 10 days
Outline: as §1

oat, wild [17] = assay: Test C postemergence; type: in vivo, Avena fatua; settings: 10 days
Outline: as §1

pigweed, palmer [18] = assay: Test C postemergence; type: in vivo, Amaranthus palmeri; settings: 10 days
Outline: as §1

ragweed [19] = assay: Test C postemergence; type: in vivo, Ambrosia artemisiifolia; settings: 10 days
Outline: as §1

ryegrass, Italian [20] = assay: Test C postemergence; type: in vivo, Lolium multiflorum; settings: 10 days
Outline: as §1

soybean [21] = assay: Test C postemergence; type: in vivo, Glycine max; settings: 10 days
Outline: as §1

wheat [22] = assay: Test C postemergence; type: in vivo, Triticum aestivum; settings: 10 days
Outline: as §1

galium = assay: Test C postemergence; type: in vivo, Galium aparine; settings: 10 days
Outline: as §1

horseweed = assay: Test C postemergence; type: in vivo, Erigeron canadensis; settings: 10 days
Outline: as §1

barnyardgrass [23] = assay: Test D flooded paddy test; type: in vivo, Echinochloa crus-galli; settings: 250 g ai/ha, applied to paddy water, visual rating after 13 to 14 days, scale 0 to 100 (0 no effect, 100 complete control)
Outline: (§2)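 At the 2-leaf stage, floodwater 3 cm deep received the test compound; that depth persisted throughout. Plants scored visually 13 to 14 days on, 0 (no effect) to 100 (complete control), dash indicating no result.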

ducksalad = assay: Test D flooded paddy test; type: in vivo, Heteranthera limosa; settings: 250 g ai/ha, applied to paddy water, visual rating after 13 to 14 days, scale 0 to 100 (0 no effect, 100 complete control)
Outline: as §2

rice = assay: Test D flooded paddy test; type: in vivo, Oryza sativa; settings: 250 g ai/ha, applied to paddy water, visual rating after 13 to 14 days, scale 0 to 100 (0 no effect, 100 complete control)
Outline: as §2

sedge, umbrella = assay: Test D flooded paddy test; type: in vivo, Cyperus difformis; settings: 250 g ai/ha, applied to paddy water, visual rating after 13 to 14 days, scale 0 to 100 (0 no effect, 100 complete control)
Outline: as §2

[24] = Preemergence, 500 g ai/ha, visual rating after 10 days
[25] = Test C, preemergence, 125 g ai/ha
[26] = 125 g ai/ha, postemergence, 0 to 100 scale, 0 no effect, 100 complete control
[27] = Postemergence, 500 g ai/ha, visual 0 to 100 scale (0 no effect, 100 complete control)

COc1c(C)cc(-n2cnc(C(C)C)n2)cc1C(=O)N1C[C@H](C)Oc2c(Cl)cccc21 [Compound 260]
Plant response rating, Barnyardgrass (barnyardgrass [1]; [24]): 90 | Barnyardgrass plant response rating (barnyardgrass [1]; [25]): 70 | Plant response rating, Blackgrass (blackgrass [2]; [24]): 80 | Blackgrass plant response rating (blackgrass [2]; [25]): 60 | Plant response rating, Corn (corn [3]; [24]): 10 | Corn plant response rating (corn [3]; [25]): 0 | Plant response rating, Foxtail, Green (green foxtail [4]; [24]): 100 | Foxtail, Green plant response rating (green foxtail [4]; [25]): 100 | Plant response rating, Kochia (kochia [5]; [24]): 80 | Kochia plant response rating (kochia [5]; [25]): 60 | Plant response rating, Oat, Wild (oat, wild [6]; [24]): 90 | Oat, Wild plant response rating (oat, wild [6]; [25]): 30 | Plant response rating, Pigweed, Palmer (pigweed, palmer [7]; [24]): 100 | Pigweed, Palmer plant response rating (pigweed, palmer [7]; [25]): 40 | Plant response rating, Ragweed (ragweed [8]; [24]): 40 | Ragweed plant response rating (ragweed [8]; [25]): 0 | Plant response rating, Ryegrass, Italian (ryegrass, Italian [9]; [24]): 90 | Ryegrass, Italian plant response rating (ryegrass, Italian [9]; [25]): 80 | Plant response rating, Soybean (soybean [10]; [24]): 40 | Soybean plant response rating (soybean [10]; [25]): 10 | Plant response rating, Wheat (wheat [11]; [24]): 20 | Wheat plant response rating (wheat [11]; [25]): 20 | Plant response rating, Barnyardgrass (barnyardgrass [12]; [26]): 10 | Plant response rating, Barnyardgrass (barnyardgrass [12]; [27]): 50 | Plant response rating, Blackgrass (blackgrass [13]; [26]): 20 | Plant response rating, Blackgrass (blackgrass [13]; [27]): 30 | Plant response rating, Corn (corn [14]; [26]): 10 | Plant response rating, Corn (corn [14]; [27]): 60 | Plant response rating, Foxtail, Green (green foxtail [15]; [26]): 10 | Plant response rating, Foxtail, Green (green foxtail [15]; [27]): 60 | Plant response rating, Kochia (kochia [16]; [26]): 60 | Plant response rating, Kochia (kochia [16]; [27]): 90 | Plant response rating, Oat, Wild (oat, wild [17]; [26]): 30 | Plant response rating, Oat, Wild (oat, wild [17]; [27]): 50 | Plant response rating, Pigweed, Palmer (pigweed, palmer [18]; [26]): 10 | Plant response rating, Pigweed, Palmer (pigweed, palmer [18]; [27]): 50 | Plant response rating, Ragweed (ragweed [19]; [26]): 0 | Plant response rating, Ragweed (ragweed [19]; [27]): 0 | Plant response rating, Ryegrass, Italian (ryegrass, Italian [20]; [26]): 60 | Plant response rating, Ryegrass, Italian (ryegrass, Italian [20]; [27]): 60 | Plant response rating, Soybean (soybean [21]; [26]): 100 | Plant response rating, Soybean (soybean [21]; [27]): 100 | Plant response rating, Wheat (wheat [22]; [26]): 20 | Plant response rating, Wheat (wheat [22]; [27]): 20 | Plant response rating, Galium (galium; [26]): 90 | Plant response rating, Galium (galium; [27]): 100 | Plant response rating, Horseweed (horseweed; [26]): 0 | Plant response rating, Horseweed (horseweed; [27]): 10 | Plant response rating, Barnyardgrass (Flood) (barnyardgrass [23]): 0 | Plant response rating, Ducksalad (Flood) (ducksalad): 0 | Plant response rating, Rice (Flood) (rice): 0 | Plant response rating, Sedge, Umbrella (Flood) (sedge, umbrella): 0
